Measured values as given in PubChem BioAssay AID330 (DTP/NCI, 2004).
Values joined by “and” are separate entries in the source; they are usually repeats but may differ in a detail not shown here. Equal values may be shown once. Inconclusive results and toxic doses are left out.

Test system: P388 leukemia ip, CD2F1 mice, survival T/C
Test: NCI In Vivo Anticancer Drug Screen. Data for tumor model P388 Leukemia (intraperitoneal) in CD2F1 (CDF1) mice
Conditions: endpoint: median survival time, higher = longer survival
Method in brief: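 Mice carrying the transplanted tumor received test compound or vehicle. Survival was recorded in each group, and the value is the treated-group measurement divided by that of the vehicle-treated control group.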

[1] = dose: 50.0 mg/kg/injection, schedule: Q01DX005 (ip), vehicle: saline with Tween-80
[2] = dose: 100.0 mg/kg/injection, schedule: Q01DX005 (ip), vehicle: saline with Tween-80
[3] = dose: 200.0 mg/kg/injection, schedule: Q01DX005 (ip), vehicle: saline with Tween-80
[4] = dose: 60.0 mg/kg/injection, schedule: Q01DX005 (ip), vehicle: saline with Tween-80
[5] = dose: 120.0 mg/kg/injection, schedule: Q01DX005 (ip), vehicle: saline with Tween-80
[6] = dose: 240.0 mg/kg/injection, schedule: Q01DX005 (ip), vehicle: saline with Tween-80
[7] = dose: 12.5 mg/kg/injection, schedule: Q01DX009 (ip), vehicle: saline
[8] = dose: 25.0 mg/kg/injection, schedule: Q01DX009 (ip), vehicle: saline
[9] = dose: 50.0 mg/kg/injection, schedule: Q01DX009 (ip), vehicle: saline
[10] = dose: 100.0 mg/kg/injection, schedule: Q01DX009 (ip), vehicle: saline
[11] = dose: 200.0 mg/kg/injection, schedule: Q01DX009 (ip), vehicle: saline
[12] = dose: 100.0 mg/kg/injection, schedule: Q01DX001 (ip), vehicle: saline with Tween-80
[13] = dose: 200.0 mg/kg/injection, schedule: Q01DX001 (ip), vehicle: saline with Tween-80
[14] = dose: 400.0 mg/kg/injection, schedule: Q01DX001 (ip), vehicle: saline with Tween-80
[15] = dose: 50.0 mg/kg/injection, schedule: Q01DX009 (ip), vehicle: Klucel (hydroxypropylcellulose) (HPC)
[16] = dose: 100.0 mg/kg/injection, schedule: Q01DX009 (ip), vehicle: Klucel (hydroxypropylcellulose) (HPC)
[17] = dose: 200.0 mg/kg/injection, schedule: Q01DX009 (ip), vehicle: Klucel (hydroxypropylcellulose) (HPC)
[18] = dose: 50.0 mg/kg/injection, schedule: Q01DX005 (ip), vehicle: Klucel (hydroxypropylcellulose) (HPC)
[19] = dose: 100.0 mg/kg/injection, schedule: Q01DX005 (ip), vehicle: Klucel (hydroxypropylcellulose) (HPC)
[20] = dose: 200.0 mg/kg/injection, schedule: Q01DX005 (ip), vehicle: Klucel (hydroxypropylcellulose) (HPC)
[21] = dose: 50.0 mg/kg/injection, schedule: Q01DX009 (ip), vehicle: saline with Tween-80
[22] = dose: 100.0 mg/kg/injection, schedule: Q01DX009 (ip), vehicle: saline with Tween-80
[23] = dose: 200.0 mg/kg/injection, schedule: Q01DX009 (ip), vehicle: saline with Tween-80
[24] = dose: 60.0 mg/kg/injection, schedule: Q01DX005 (ip), vehicle: Klucel (hydroxypropylcellulose) (HPC)
[25] = dose: 120.0 mg/kg/injection, schedule: Q01DX005 (ip), vehicle: Klucel (hydroxypropylcellulose) (HPC)
[26] = dose: 50.0 mg/kg/injection, schedule: Q01DX005 (ip), vehicle: saline
[27] = dose: 6.25 mg/kg/injection, schedule: Q01DX009 (ip), vehicle: saline with Tween-80
[28] = dose: 12.5 mg/kg/injection, schedule: Q01DX009 (ip), vehicle: saline with Tween-80
[29] = dose: 25.0 mg/kg/injection, schedule: Q01DX009 (ip), vehicle: saline with Tween-80
[30] = dose: 100.0 mg/kg/injection, schedule: Q01DX005 (ip), vehicle: saline
[31] = dose: 200.0 mg/kg/injection, schedule: Q01DX005 (ip), vehicle: saline

## CCC1(O)CN2CCc3c([nH]c4ccccc34)C1C(/C=C(\C(=O)OC)c1cc3c(cc1OC)N(C)C1C(O)(C(=O)OC)C(OC(C)=O)C4(CC)C=CCN5CCC31C54)C2 (stereo unspecified)
dose: 1.0 mg/kg/injection, schedule: Q01DX001 (ip), vehicle: distilled water + Tween-80
  T/C: 102 % of control
dose: 2.0 mg/kg/injection, schedule: Q01DX001 (ip), vehicle: distilled water + Tween-80
  T/C: 100 % of control
dose: 2.0 mg/kg/injection, schedule: Q01DX009 (ip), vehicle: distilled water + alcohol
  T/C: 160 % of control
dose: 4.0 mg/kg/injection, schedule: Q01DX001 (ip), vehicle: distilled water + Tween-80
  T/C: 100 % of control
dose: 4.0 mg/kg/injection, schedule: Q01DX009 (ip), vehicle: distilled water + alcohol
  T/C: 152 % of control
dose: 8.0 mg/kg/injection, schedule: Q01DX001 (ip), vehicle: distilled water + Tween-80
  T/C: 102 % of control
dose: 16.0 mg/kg/injection, schedule: Q01DX001 (ip), vehicle: distilled water + Tween-80
  T/C: 112 % of control
dose: 32.0 mg/kg/injection, schedule: Q01DX001 (ip), vehicle: distilled water + Tween-80
  T/C: 100 % of control

## Cc1cccnc1NCc1ccccn1
[1]
  T/C: 103 % of control
[2]
  T/C: 100 % of control
[3]
  T/C: 93 % of control

## Cc1cccc(NC(=O)Oc2ccc(C#N)cc2)c1
[4]
  T/C: 97 % of control
[5]
  T/C: 109 % of control
[6]
  T/C: 106 % of control

## O=C(O)CNCC(=O)O
[7]
  T/C: 94 % of control
[8]
  T/C: 99 % of control
[9]
  T/C: 93 % of control
[10]
  T/C: 100 % of control and 98 % of control
[11]
  T/C: 100 % of control
dose: 400.0 mg/kg/injection, schedule: Q01DX009 (ip), vehicle: saline
  T/C: 90 % of control

## CC/C(C=O)=C\NC(=O)Nc1ccccc1
[12]
  T/C: 97 % of control
[13]
  T/C: 101 % of control
[14]
  T/C: 98 % of control

## O=c1c(Cl)c2oc3cc([N+](=O)[O-])ccc3nc-2c(Cl)c1Cl
[15]
  T/C: 107 % of control
[16]
  T/C: 99 % of control
[17]
  T/C: 91 % of control

## N#CC(C(=O)CCC(=O)C(C#N)c1nc2ccccc2s1)c1nc2ccccc2s1 (stereo unspecified)
[12]
  T/C: 89 % of control
[13]
  T/C: 88 % of control
[14]
  T/C: 91 % of control

## OC(c1ccccc1)C(C(c1ccccc1)N1CCCc2ccccc21)N1CCOCC1 (stereo unspecified)
[18]
  T/C: 99 % of control
[19]
  T/C: 93 % of control
[20]
  T/C: 90 % of control

## CS(=O)(=O)c1cccc(C(=O)O)c1
[15]
  T/C: 108 % of control
[16]
  T/C: 108 % of control
[17]
  T/C: 99 % of control

## Oc1ccc(C(c2ccc(O)cc2)C(c2ccc(O)cc2)c2ccc(O)cc2)cc1
[21]
  T/C: 107 % of control
[22]
  T/C: 100 % of control
[23]
  T/C: 113 % of control

## CC(C)N=C(Cc1ccccc1)NC(C)(C)C
[7]
  T/C: 111 % of control
[8]
  T/C: 101 % of control
[9]
  T/C: 98 % of control

## Nc1ccccc1-c1ccccc1[N+](=O)[O-]
[9]
  T/C: 95 % of control
[10]
  T/C: 96 % of control
[11]
  T/C: 95 % of control

## CC(C)(CO)CS
[21]
  T/C: 99 % of control
[22]
  T/C: 100 % of control
[23]
  T/C: 97 % of control

## COc1cc(/C(=C(\CC(=O)O)C(=O)O)c2ccc3c(c2)OCO3)cc(OC)c1OC
[18]
  T/C: 102 % of control and 103 % of control
[19]
  T/C: 103 % of control and 111 % of control
[20]
  T/C: 99 % of control and 100 % of control

## c1ccc2c(c1)OCc1nccn1-2
[24]
  T/C: 99 % of control
[25]
  T/C: 100 % of control

## CCOc1ccn(C2C=CC(=O)O2)c(=O)n1 (stereo unspecified)
dose: 6.25 mg/kg/injection, schedule: Q01DX005 (ip), vehicle: saline
  T/C: 102 % of control and 105 % of control
dose: 12.5 mg/kg/injection, schedule: Q01DX005 (ip), vehicle: saline
  T/C: 110 % of control and 112 % of control
dose: 25.0 mg/kg/injection, schedule: Q01DX005 (ip), vehicle: saline
  T/C: 111 % of control and 118 % of control
[26]
  T/C: 118 % of control and 120 % of control

## OCC1C=CCC1 (stereo unspecified)
[27]
  T/C: 99 % of control
[28]
  T/C: 101 % of control
[29]
  T/C: 90 % of control

## N#CC(C(=O)C(=O)Nc1cccc(C(F)(F)F)c1)c1ccc(Cl)cc1Cl (stereo unspecified)
[4]
  T/C: 94 % of control
[5]
  T/C: 91 % of control
[6]
  T/C: 92 % of control

## CCOC(=O)C(CC)Oc1cccc2c1oc1ccccc12 (stereo unspecified)
dose: 25.0 mg/kg/injection, schedule: Q01DX009 (ip), vehicle: Klucel (hydroxypropylcellulose) (HPC)
  T/C: 103 % of control
[15]
  T/C: 106 % of control
[16]
  T/C: 101 % of control
[17]
  T/C: 109 % of control

## CC(=O)c1nn(-c2ccccc2)c(=O)cc1C
[1]
  T/C: 100 % of control
[2]
  T/C: 98 % of control
[3]
  T/C: 100 % of control

## NC(CC(=O)O)C(F)(F)F (stereo unspecified)
[4]
  T/C: 99 % of control
[5]
  T/C: 100 % of control
[6]
  T/C: 102 % of control

## CC(=O)[C@H]1CC[C@H]2[C@@H]3CCC4=CC(=O)C=C[C@]4(C)[C@H]3C(=O)C[C@]12C
[22]
  T/C: 100 % of control
[23]
  T/C: 100 % of control
dose: 400.0 mg/kg/injection, schedule: Q01DX009 (ip), vehicle: saline with Tween-80
  T/C: 100 % of control

## Cc1c(C)c(Cl)c(C)c(C)c1Cl
dose: 5.0 mg/kg/injection, schedule: Q01DX009 (ip), vehicle: saline with Tween-80
  T/C: 95 % of control
dose: 10.0 mg/kg/injection, schedule: Q01DX009 (ip), vehicle: saline with Tween-80
  T/C: 100 % of control
dose: 20.0 mg/kg/injection, schedule: Q01DX009 (ip), vehicle: saline with Tween-80
  T/C: 100 % of control

## Cc1nc2ncn(-c3ccccc3)c2c(=O)n1Cc1ccccc1
[18]
  T/C: 105 % of control
[19]
  T/C: 105 % of control
[20]
  T/C: 105 % of control

## CCCCCCCCSC1=CC(=O)C(OC)=C(OC)C1=O
dose: 4.0 mg/kg/injection, schedule: Q01DX009 (ip), vehicle: Klucel (hydroxypropylcellulose) (HPC)
  T/C: 92 % of control
dose: 8.0 mg/kg/injection, schedule: Q01DX009 (ip), vehicle: Klucel (hydroxypropylcellulose) (HPC)
  T/C: 95 % of control

## O=S(=O)(O)C(O)C(F)(F)C(F)(F)C(F)(F)C(F)(F)C(O)S(=O)(=O)O (stereo unspecified)
dose: 60.0 mg/kg/injection, schedule: Q01DX005 (ip), vehicle: saline
  T/C: 103 % of control
dose: 120.0 mg/kg/injection, schedule: Q01DX005 (ip), vehicle: saline
  T/C: 103 % of control
dose: 240.0 mg/kg/injection, schedule: Q01DX005 (ip), vehicle: saline
  T/C: 103 % of control

## O=C(CO)C1CC2CCC1C2 (stereo unspecified)
[24]
  T/C: 101 % of control
[25]
  T/C: 101 % of control
dose: 240.0 mg/kg/injection, schedule: Q01DX005 (ip), vehicle: Klucel (hydroxypropylcellulose) (HPC)
  T/C: 99 % of control

## O=S(O)O
[26]
  T/C: 108 % of control
[30]
  T/C: 101 % of control
[31]
  T/C: 109 % of control
dose: 400.0 mg/kg/injection, schedule: Q01DX005 (ip), vehicle: saline
  T/C: 116 % of control

## Cc1cccc(Cl)c1NC(=O)CSCCN(C)C
[24]
  T/C: 106 % of control
[25]
  T/C: 103 % of control

## CC(O)c1cc(=O)[nH][nH]1 (stereo unspecified)
[26]
  T/C: 105 % of control
[30]
  T/C: 99 % of control
[31]
  T/C: 110 % of control

## CCCCN(CCCC)CC(O)c1cc2ccc(C(F)(F)F)cc2c2cc(C(F)(F)F)ccc12 (stereo unspecified)
[27]
  T/C: 93 % of control
[28]
  T/C: 94 % of control
[29]
  T/C: 88 % of control
[22]
  T/C: 100 % of control
[23]
  T/C: 99 % of control

## C/C(=N\NC(=S)N1CCCCC1)c1ccccn1
[27]
  T/C: 98 % of control
[28]
  T/C: 100 % of control

## Cn1nncc1NS(=O)(=O)c1ccc([N+](=O)[O-])cc1
[12]
  T/C: 107 % of control
[13]
  T/C: 115 % of control
[14]
  T/C: 98 % of control

## CCCCCCCC[N+]1([O-])CCOCC1
[9]
  T/C: 108 % of control
[10]
  T/C: 97 % of control
[11]
  T/C: 88 % of control
